Blank lines part the entries; values can stand above or below the compound they belong to.
Legend:
[1] = tested on: Plasmodium falciparum; experiment: Antimalarial activity against Plasmodium falciparum 3D7 assessed as reduction in parasite growth incubated for 48 hrs by Giemsa-staining counting based microscopic analysis; format: functional, organism-based; settings: 3D7, 48 h
[2] = Cytotoxicity against African monkey Vero cells assessed as reduction in cell viability incubated for 72 hrs by MTT assay; format: toxicity, cell-based; settings: chlorocebus sabaeus
[3] = tested on: Plasmodium falciparum; experiment: Antimalarial activity against Plasmodium falciparum K1 assessed as reduction in parasitic growth incubated for 48 hrs by Giemsa-staining counting based microscopic analysis; format: functional, organism-based; settings: K1, 48 h
[4] = tested on: HepG2; experiment: Cytotoxicity against human HepG2 cells assessed as reduction in cell viability incubated for 24 hrs by MTT assay; format: functional
[5] = tested on: Plasmodium falciparum; experiment: Antimalarial activity against multi-drug resistant Plasmodium falciparum K1 assessed as reduction in parasite growth incubated for 48 hrs by SYBR green assay; format: functional, organism-based; settings: K1, 48 h
[6] = tested on: Plasmodium falciparum; experiment: Antimalarial activity against chloroquine-sensitive Plasmodium falciparum 3D7 assessed as reduction in parasite growth incubated for 48 hrs by SYBR green assay; format: functional, organism-based; settings: 3D7, 48 h
[7] = tested on: Plasmodium falciparum; experiment: Antimalarial activity against chloroquine-resistant Plasmodium falciparum Dd2 assessed as reduction in parasitic growth incubated for 72 hrs by Giemsa-staining based microscopic analysis; format: functional, organism-based; settings: Dd2, 72 h
[8] = tested on: Plasmodium falciparum; experiment: Antimalarial activity against chloroquine-sensitive Plasmodium falciparum 3D7 by SYBR green I assay; format: functional, organism-based
[9] = tested on: Plasmodium falciparum; experiment: Antiplasmodial activity against Plasmodium falciparum 3D7 infected in human erythrocytes assessed as growth inhibition after 72 hrs by SYBR Gren-I fluorescent dye based method; format: functional, organism-based; settings: 3D7, 72 h
[10] = tested on: Plasmodium falciparum; experiment: Antimalarial activity against Plasmodium falciparum K1 assessed as inhibition of parasitic growth; format: functional, organism-based
[11] = tested on: HepG2; experiment: Cytotoxicity against human HepG2 cells assessed as cell growth inhibition measured after 72 hrs by MTT assay; format: functional
[12] = tested on: Plasmodium falciparum; experiment: Antimalarial activity against drug sensitive Plasmodium falciparum NF54 assessed as inhibition of parasite growth; format: functional, organism-based
[13] = tested on: Plasmodium falciparum; experiment: Antimalarial activity against Plasmodium falciparum Dd2 assessed as reduction in parasitic growth; format: functional, organism-based
[14] = tested on: Plasmodium falciparum; experiment: Antiplasmodial activity against Plasmodium falciparum 3D7 assessed as inhibition of parasitic growth; format: functional, organism-based
[15] = Cytotoxicity against African green monkey Vero cells by MTT assay; format: toxicity, cell-based; settings: African green monkey (Chlorocebus sabaeus)
[16] = tested on: Plasmodium falciparum; experiment: Antiplasmodial activity against Plasmodium falciparum NF54; format: functional, organism-based
[17] = tested on: Plasmodium falciparum; experiment: Antiplasmodial activity against chloroquine-sensitive Plasmodium falciparum 3D7 assessed as parasitic growth inhibition incubated for 72 hrs by SYBR Green staining based fluorescence analysis; format: functional, organism-based; settings: 3D7, 72 h
[18] = tested on: Plasmodium falciparum; experiment: Antiplasmodial activity against chloroquine-resistant Plasmodium falciparum W2 assessed as parasitic growth inhibition incubated for 72 hrs by SYBR Green staining based fluorescence analysis; format: functional, organism-based; settings: W2, 72 h
[19] = Cytotoxicity against African green monkey Vero cells assessed as reduction in cell viability measured after 24 hrs; format: toxicity, cell-based; settings: African green monkey (Chlorocebus sabaeus)
[20] = Cytotoxicity against African green monkey Vero cells assessed as reduction in cell viability incubated for 48 hrs by MTT assay; format: toxicity, cell-based; settings: chlorocebus sabaeus
[21] = tested on: Plasmodium falciparum; experiment: Antimalarial activity against Plasmodium falciparum assessed as parasitic growth inhibition; format: functional, organism-based
[22] = Cytotoxicity against African green monkey Vero cells; format: toxicity, cell-based; settings: chlorocebus sabaeus
[23] = tested on: Plasmodium falciparum; experiment: Antimalarial activity against Plasmodium falciparum W2 assessed as reduction in parasite growth incubated for 48 hrs by LDH assay; format: functional, organism-based; settings: W2, 48 h
[24] = tested on: Plasmodium falciparum; experiment: Antimalarial activity against chloroquine-sensitive Plasmodium falciparum NF54 assessed as reduction in cell growth; format: functional, organism-based
[25] = tested on: Plasmodium falciparum; experiment: Antimalarial activity against chloroquine-resistant Plasmodium falciparum K1 assessed as reduction in cell growth; format: functional, organism-based
[26] = tested on: Plasmodium falciparum; experiment: Antimalarial activity against CQ-resistant Plasmodium falciparum RKL9; format: functional, organism-based
[27] = tested on: Plasmodium falciparum; experiment: Antimalarial activity against Plasmodium falciparum 3D7 assessed as inhibition of parasite growth; format: functional, organism-based
[28] = tested on: Plasmodium falciparum; experiment: Antimalarial activity against chloroquine-resistant Plasmodium falciparum Dd2 assessed as inhibition of parasite growth; format: functional, organism-based
[29] = tested on: Plasmodium falciparum; experiment: Antimalarial activity against Plasmodium falciparum 3D7 assessed as inhibition of parasite growth incubated for 96 hrs; format: functional, organism-based; settings: 3D7, 96 h
[30] = tested on: Plasmodium berghei; experiment: Antimalarial activity against Plasmodium berghei ANKA; format: functional, organism-based
[31] = tested on: Plasmodium falciparum; experiment: Antimalarial activity against Plasmodium falciparum D6 assessed as reduction in parasite growth incubated for 48 hrs by LDH assay; format: functional, organism-based; settings: D6, 48 h

Compound: CCN(CC)CCCC(C)Nc1ccnc2cc(Cl)ccc12 (configuration not stated) [CHLOROQUINE]
- EC50 [1]: 2 nM
- CC50 at 72 h [2]: 86800 nM
- EC50 [3]: 330 nM

Compound: NCCNc1ccnc2cc(Cl)ccc12
- MLD50 [4]: 179 µM
- IC50 [5]: 218 nM
- IC50 [6]: 273 nM

Compound: CCCC(=O)NCCCC(C)Nc1ccnc2cc(Cl)ccc12 (configuration not stated)
- IC50 [7]: 588000 nM
- IC50 [8]: 627 nM

Compound: CC1(C)[C@@H]2CC=C(CC(=O)Nc3ccnc4ccccc34)[C@H]1C2
- EC50 [9]: 26400 nM
- EC50 [10]: 13900 nM
- CC50 [11]: 3890 nM
- EC50 [12]: 23400 nM

Compound: Fc1ccc2scc(-c3ccc(CNCCCNc4ccnc5ccccc45)cc3)c2c1
- IC50 [13]: 73.3 nM
- IC50 [14]: 18.8 nM

- IC50 [16]: 139 nM
Compound: CCCCC1(CCCC)c2ccccc2-c2cc(Cl)c(NC(=O)CNCCCNc3ccnc4cc(Cl)ccc34)cc21
- IC50 [15]: 15900 nM

Compound: N#Cc1ccc2c(CNCCCNc3ccnc4cc(Cl)ccc34)csc2c1
- IC50 [13]: 18.6 nM
- IC50 [14]: 50.2 nM

Compound: C#CCNc1ccnc2cc(Cl)ccc12
- MLD50 [4]: 407 µM
- IC50 [5]: 405 nM
- IC50 [6]: 377 nM

Compound: N#Cc1ccc(-c2ccc(-c3ccc(CNCCCCCCCCNc4ccnc5cc(Cl)ccc45)cc3)s2)cc1
- IC50 [13]: 174 nM
- IC50 [14]: 97.3 nM

Compound: OB1OCc2ccc(OCc3cn(CCCNc4ccnc5cc(Cl)ccc45)nn3)cc21
- IC50 [17]: 4130 nM
- IC50 [18]: 3910 nM
- IC50 at 24 h [19]: > 100000 nM

Compound: CCOC(=O)c1nn(CCNc2ccnc3cc(Cl)ccc23)c2c1C(c1ccccc1)C(C#N)=C(N)O2 (configuration not stated)
- CC50 at 48 h [20]: 103000 nM
- EC50 [1]: 190 nM
- EC50 [3]: 250 nM

Compound: Clc1ccc2c(NNc3ccncc3)ccnc2c1
- IC50 [21]: 3750 nM

Compound: CCOC(=O)c1nn(CCNc2ccnc3cc(Cl)ccc23)c2c1C(C(C)C)C(C#N)=C(N)O2 (configuration not stated)
- CC50 at 48 h [20]: 86100 nM
- EC50 [1]: 3390 nM
- EC50 [3]: 300 nM

- IC50 [16]: 326 nM
Compound: CC1(C)c2ccccc2-c2cc(Cl)c(NC(=O)C(=O)NCCCNc3ccnc4cc(Cl)ccc34)cc21
- IC50 [15]: 17700 nM

Compound: CCOC(=O)c1nn(CCNc2ccnc3cc(Cl)ccc23)c2c1C(c1ccco1)C(C#N)=C(N)O2 (configuration not stated)
- CC50 at 48 h [20]: 84500 nM
- EC50 [1]: 113 nM
- EC50 [3]: 1610 nM

Compound: CN(CCCCCCCCNc1ccnc2ccccc12)Cc1ccc(-c2ccc(-c3ccc(C#N)cc3)s2)cc1
- IC50 [13]: 71.5 nM
- IC50 [14]: 120 nM

Compound: N=C(N=C(N)N)SCCCNc1ccnc2cc(Cl)ccc12
- CC50 [22]: > 11400 nM
- IC50 [23]: 2130 nM

Compound: C#Cc1ccc(-c2cn(CCNc3ccnc4cc(Cl)ccc34)nn2)c(F)c1
- IC50 [24]: 190 nM
- IC50 [25]: 210 nM

Compound: O=C(O)CNc1ccnc2cc(Cl)ccc12
- MLD50 [4]: >1000 µM
- IC50 [5]: > 10000 nM
- IC50 [6]: > 10000 nM

Compound: COc1cc(/C=N/Nc2ccnc3cc(Cl)ccc23)ccc1O
- IC50 [26]: 9 nM
- IC50 [27]: 9 nM

Compound: O=C(O)C(Cc1c[nH]c2ccccc12)Nc1ccnc2cc(Cl)ccc12 (configuration not stated)
- IC50 [28]: 5000 nM
- IC50 [29]: 8000 nM

Compound: O=C(O)CCCCCCCCCCCNc1ccnc2cc(Cl)ccc12
- IC50 [28]: 4000 nM
- IC50 [29]: 31 nM

Compound: CCCCCCCC(=O)NCCCC(C)Nc1ccnc2cc(Cl)ccc12 (configuration not stated)
- IC50 [7]: 109000 nM
- IC50 [8]: 51 nM

- IC50 [30]: 490 nM
Compound: C[C@H](Cc1ccccc1)Nc1ccnc2cc(Cl)ccc12

Compound: N=C(N=C(N)N)SCCCNc1cc(C(F)(F)F)nc2c(C(F)(F)F)cccc12
- CC50 [22]: > 9170 nM
- IC50 [23]: 7210 nM
- IC50 [31]: 5540 nM

- IC50 [16]: 346 nM
Compound: O=C(CNCCCNc1ccnc2cc(Cl)ccc12)Nc1cc2c(cc1Cl)-c1ccccc1C2
- IC50 [15]: 11200 nM

Compound: CCN(CC)CC#CCNc1ccnc2cc(Cl)ccc12
- MLD50 [4]: 1481 µM
- IC50 [5]: 50 nM
- IC50 [6]: 46 nM

Compound: CC(C)Cc1ccc(C(C)C(=O)NCCNc2ccnc3cc(Cl)ccc23)cc1 (configuration not stated)
- IC50 [28]: 201 nM
- IC50 [29]: 125 nM

- IC50 [30]: 590 nM
Compound: COc1ccc2c(c1)C[C@H](Nc1ccnc3cc(Cl)ccc13)C2

— ChEMBL document CHEMBL5344418, “Recent developments in antimalarial activities of 4-aminoquinoline derivatives” (Eur J Med Chem, 2023)
